Values of other authors as cited in US12364687B2 (BIOHAVEN PHARMACEUTICAL HOLDING COMPANY LTD., priority 2018, dated 2025).

Conditions: taken with meals

In the case of `Nc1nc2ccc(OC(F)(F)F)cc2s1` [riluzole, 6-(trifluoromethoxy)benzothiazol-2-amine], the “food effect on exposure” value is listed as “reduced exposure when taken with meals”.
